This passage reports IC50 and inhibition in vivo results from patent US7763657B2, “Compounds, isomer thereof, or pharmaceutically acceptable salts thereof as vanilloid receptor antagonist; and pharmaceutical compositions containing the same” (Amorepacific Corporation, priority 2005, dated 2010).

Assay [1] addresses T1, vanilloid receptor (Rattus norvegicus, UniProt O35433).
T1 construct: DRG nerve cells from the primary culture of 2 days were equilibrated; endogenous in cells; host or cells: primary cultured dorsal root ganglion neurons of neonatal SD rats
Nature of the assay: 45Ca influx test (calcium uptake) in primary cultured DRG neurons, antagonism of capsaicin. It counts as cell-based. The conditions noted are these: neonatal SD rat DRG nerve cells; capsaicin 0.5 μM; 45Ca 10 μCi/ml; 10 mins room temperature; read-out: Antagonist Calcium Uptake Test (IC50). The procedure:
1) Separation of Spinal Dorsal Root Ganglia (DRG) in Newborn Rats and Primary Culture Thereof
Neonatal (2-3 day old or younger than 2-3 day old) SD rats were put in ice for 5 minutes to anesthetize and disinfected with 70% ethanol. […] The DRG were incubated sequentially at 37° C. for 30 min in 200 U/ml collagenase and 2.5 mg/ml trypsin, separately. The ganglia were washed twice with DME/F12 medium supplemented with 10% horse serum, triturated through a fire-polished Pasteur pipette, filtered through Nitex 80 membrane to obtain single cell suspension and the suspension was washed once more. This was subjected to centrifugation, then resuspended in cell culture medium at certain level of cell density. As the cell culture medium, DME/F12 medium supplemented with 10% horse serum was diluted with identical medium conditioned by C6 glioma cells 2 days on a confluent monolayer (1:1), and NGF (Nerve Growth Factor) was added to adjust 200 ng/ml as final concentration. After the cells were grown 2 days in medium where cytosine arabinoside (Ara-C, 100 μM) was added to kill dividing nonneuronal cells, medium was changed to one without Ara-C. The resuspended cells were plated at a density of 1500-2000 neurons/well onto Terasaki plates previously coated with 10 μg/ml poly-D-ornithine.
2) ^45Ca Influx Experiments
DRG nerve cells from the primary culture of 2 days were equilibrated by washing 4 times with HEPES (10 mM, pH 7.4)-buffered Ca^2+, Mg^2+-free HBSS (H—HBSS). The solution in each well was removed from the individual well. Medium containing the test compound plus capsaicin (final concentration 0.5 μM) and ^45Ca (final concentration 10 μCi/ml) in H—HBSS was added to each well and incubated at room temperature for 10 mins. Terasaki plates were washed five times with H—HBSS and dried at room temperature. To each well, 0.3% SDS (10 μl) was added to elute ^45Ca. After the addition of scintillation cocktail of into each well, the amount of ^45Ca influx into neuron was measured by counting radioactivity.

Assay [2] relates to Male ICR mice. Nature of the assay: Analgesic activity test: mouse writhing test by inducing with phenyl-p-quinone. It is filed as in vivo. As to conditions: ip, 0.5 h, number of writhes vs control, read-out: Analgesic effect (% Inhibition); for inhibition in vivo at 1 mg/kg: Dose 1 mg/kg intraperitoneally 30 min before phenyl-p-quinone. As for the experimental part:
3. Analgesic Activity Test: Mouse Writhing Test by Inducing with phenyl-p-quinone
Male ICR mice (mean body weight 25 g) were maintained in a controlled lighting environment (12 h on/12 h off) for experiment. Animals received an intraperitoneal injection of 0.3 ml of the chemical irritant phenyl-p-quinone (dissolved in saline containing 5% ethanol to be a dose of 4.5 mg/kg) and 6 mins later, the number of abdominal constrictions was counted in the subsequent 6 mins period. Animals (10 animals/group) received 0.2 ml of test compounds solution in vehicle of ethanol/Tween 80/saline (10/10/80) intraperitoneally 30 min before the injection of phenyl-p-quinone. A reduction in the number of writhes responding to the test drug compound relative to the number responding in saline control group was considered to be indicative of an analgesic effect. Analgesic effect was calculated by % inhibition equation (% inhibition=(C−T)/C×100), wherein C and T represent the number of writhes in control and compound-treated group, respectively (Table 3).
For orientation: An intraperitoneal irritant provokes the stretching counted in writhing tests.

T1 sequence (O35433 whole entry): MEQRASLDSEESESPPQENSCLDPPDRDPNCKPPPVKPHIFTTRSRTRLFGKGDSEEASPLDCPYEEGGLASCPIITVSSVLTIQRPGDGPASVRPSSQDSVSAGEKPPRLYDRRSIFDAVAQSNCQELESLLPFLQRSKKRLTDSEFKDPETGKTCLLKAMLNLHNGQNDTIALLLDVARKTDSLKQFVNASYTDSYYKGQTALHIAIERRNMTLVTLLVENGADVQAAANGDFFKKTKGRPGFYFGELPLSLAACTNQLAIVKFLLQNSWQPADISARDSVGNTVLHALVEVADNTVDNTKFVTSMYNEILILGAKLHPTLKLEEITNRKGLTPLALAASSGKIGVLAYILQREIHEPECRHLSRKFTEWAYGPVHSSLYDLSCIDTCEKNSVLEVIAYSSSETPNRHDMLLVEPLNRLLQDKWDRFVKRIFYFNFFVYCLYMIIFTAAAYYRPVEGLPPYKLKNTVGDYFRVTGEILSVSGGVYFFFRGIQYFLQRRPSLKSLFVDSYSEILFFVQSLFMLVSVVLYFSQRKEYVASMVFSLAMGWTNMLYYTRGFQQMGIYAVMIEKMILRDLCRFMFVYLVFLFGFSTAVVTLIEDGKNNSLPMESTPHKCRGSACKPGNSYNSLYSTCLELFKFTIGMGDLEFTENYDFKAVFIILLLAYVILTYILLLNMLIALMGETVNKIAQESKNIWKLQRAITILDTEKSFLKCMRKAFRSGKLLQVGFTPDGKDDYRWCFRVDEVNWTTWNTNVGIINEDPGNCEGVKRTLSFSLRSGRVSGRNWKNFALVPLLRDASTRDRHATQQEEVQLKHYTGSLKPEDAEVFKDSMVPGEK

Broadly, the IC50 is the concentration that inhibits the measured activity by half. Turning to `C=Cc1cc(CNC(=O)/C=C/c2ccc(C(C)(C)C)cc2)ccc1NS(C)(=O)=O` [Example 17, 3-(4-t-butylphenyl)-N-(4-methanesulfonylamino-3-vinylbenzyl)acryl amide], in assay [1], the 50% inhibitory concentration (IC50) was found to be 58 nM. For the same compound, the inhibition in vivo at 1 mg/kg in assay [2] amounted to 63%. On the same counts, the results for `C=Cc1cc(CNC(=O)/C=C/c2ccc(C(C)(C)C)cc2)cc(F)c1NS(C)(=O)=O` [Example 15, 3-(4-t-butylphenyl)-N-(3-fluoro-4-methanesulfonylamino-5-vinylbenzyl)acrylamide] are 34 nM and 60%. On the same counts, the results for `C#Cc1cc(CNC(=O)/C=C/c2ccc(C(C)(C)C)cc2)cc(F)c1NS(C)(=O)=O` [Example 16, 3-(4-t-butylphenyl)-N-(3-fluoro-5-ethynyl-4-methanesulfonylamino-benzyl)acrylamide] are 47 nM and 68%.

Regarding `C=Cc1cc(CNC(=O)CCc2ccc(C(C)(C)C)cc2OC2CCOCC2)cc(F)c1NS(C)(=O)=O` [Example 41, 3-[4-tert-Butyl-2-(tetrahydropyran-4-yloxy)phenyl]-N-(3-fluoro-4-methanesulfonylamino-5-vinylbenzyl)propionamide], the IC50 in assay [1] was 43 nM. In addition, the inhibition in vivo at 1 mg/kg in assay [2] is 44%. Taken in the same sequence, the figures for `C=Cc1cc(CNC(=O)CCc2ccc(C(C)(C)C)cc2)cc(F)c1NS(C)(=O)=O` [Example 46, 3-[4-(tert-butyl)phenyl]-N-[3-fluoro-4-(methanesulfonylamino)-5-vinylbenzyl]propionamide] were 25 nM and 43%.

As for `C=Cc1cc([C@@H](C)NC(=O)/C=C/c2ccc(C(C)(C)C)cc2)cc(F)c1NS(C)(=O)=O` [Example 36, (R)-3-(4-tert-Butylphenyl)-N-[1-(3-fluoro-4-methanesulfonylamino-5-vinylphenyl)ethyl]acrylamide], the IC50 in assay [1] came out at 54 nM.

On to `C=Cc1cc(CNC(=O)NCc2ccc(C(C)(C)C)cc2)cc(F)c1NS(C)(=O)=O` [Example 2, N-{4-[3-(4-t-butylbenzyl)ureidomethyl]-2-fluoro-6-vinylphenyl}methanesulfonamide], for which the concentration for half-maximal inhibition (IC50) in assay [1] was determined as 98 nM. Besides, the inhibition in vivo at 0.3 mg/kg in assay [2] (Dose 0.3 mg/kg intraperitoneally 30 min before phenyl-p-quinone) was determined as 57%.

On to `C=Cc1cc([C@@H](C)NC(=O)NCc2ccc(C(C)(C)C)cc2)ccc1NS(C)(=O)=O` [Example 6, N-(4-{1-(R)-[3-(4-t-butylbenzyl)ureido]ethyl}-2-vinylphenyl)methanesulfonamide], for which the half-maximal inhibitory concentration (IC50) in assay [1] is 82 nM. The inhibition in vivo at 1 mg/kg in assay [2] came out at 56%. Regarding `C=CCOc1cc(C(C)(C)C)ccc1/C=C/C(=O)NCc1cc(F)c(NS(C)(=O)=O)c(C=C)c1` [Example 30, 3-(2-Allyloxy-4-tert-butylphenyl)-N-(3-fluoro-4-methanesulfonylamino-5-vinylbenzyl)acrylamide], in assay [1], the IC50 came to 68 nM.

With `C#Cc1cc(CNC(=O)NCc2ccc(C(C)(C)C)cc2)c(Cl)cc1NS(C)(=O)=O` [Example 5, N-{4-[3-(4-t-butylbenzyl)ureidomethyl]-5-chloro-2-ethynylphenyl}methanesulfonamide], in assay [1], the IC50 came out at 490 nM.

`C=Cc1cc(CNC(=O)/C=C/c2ccc(C(C)(C)C)cc2N2CCN(C)CC2)cc(F)c1NS(C)(=O)=O` [Example 25, 3-[4-tert-Butyl-2-(4-methylpiperazin-1-yl)phenyl]-N-(3-fluoro-4-methanesulfonylamino-5-vinylbenzyl)acrylamide]: the inhibition in vivo at 1 mg/kg in assay [2] was found to be 64%. Take `C=Cc1cc(CNC(=O)/C(F)=C/c2ccc(C(C)(C)C)cc2)cc(F)c1NS(C)(=O)=O` [Example 38, 3-(4-tert-Butylphenyl)-2-fluoro-N-(3-fluoro-4-methanesulfonylamino-5-vinylbenzyl)acrylamide]: the half-maximal inhibitory concentration (IC50) in assay [1] is 270 nM.

For the compound `C=Cc1cc(CNC(=O)/C=C/c2ccc(C(C)(C)C)cc2NCCOC)cc(F)c1NS(C)(=O)=O` [Example 27, 3-[4-tert-Butyl-2-(2-methoxyethylamino)phenyl]-N-(3-fluoro-4-methanesulfonylamino-5-vinylbenzyl)acrylamide], the IC50 in assay [1] was found to be 76 nM. As to `C#Cc1cc(CNC(=O)NCc2ccc(C(C)(C)C)cc2)cc(F)c1NS(C)(=O)=O` [Example 3, N-{4-[3-(4-t-butylbenzyl)ureidomethyl]-2-ethynyl-6-fluorophenyl}methanesulfonamide], the IC50 in assay [1] was 180 nM. For `C=Cc1cc(CNC(=O)NCc2ccc(C(C)(C)C)cc2)cc(C)c1NS(C)(=O)=O` [Example 8, N-{4-[3-(4-tert-Butyl-benzyl)-ureidomethyl]-2-methyl-6-vinyl-phenyl}-methanesulfonamide], in assay [1], the IC50 stood at 310 nM. Same read-out and setting: to `C=Cc1cc([C@@H](C)NC(=O)C#Cc2ccc(C(C)(C)C)cc2)cc(F)c1NS(C)(=O)=O` [Example 13, 3-(4-tert-Butylphenyl)propynoic acid N-[1-(3-fluoro-4-methanesulfonylamino-5-vinylphenyl)ethyl]amide] belongs 150 nM; to `C=Cc1cc(CNC(=O)/C=C/c2ccc(C(C)(C)C)cc2NCCC(C)C)cc(F)c1NS(C)(=O)=O` [Example 32, 3-[4-tert-butyl-2-(3-methylbutylamino)phenyl]-N-(3-fluoro-4-methanesulfonylamino-5-vinylbenzyl)acrylamide], 490 nM. As to `C=Cc1cc(CNC(=O)CCc2ccc(C(C)(C)C)cc2)ccc1NS(C)(=O)=O` [Example 45, 3-[4-(tert-butyl)phenyl]-N-[4-(methanesulfonylamino)-3-vinylbenzyl]propionamide], the IC50 in assay [1] was determined as 63 nM. In assay [2], the inhibition in vivo at 1 mg/kg is 82%. In the case of `C=Cc1cc([C@@H](C)NC(=O)Nc2ccc(C(C)(C)C)cc2)ccc1NS(=O)(=O)C=C` [Example 58, Ethenesulfonic Acid (4-{1-[3-(4-tert-butylphenyl)ureido]ethyl}-2-vinylphenyl)amide], the IC50 in assay [1] was 450 nM. For the compound `C=Cc1cc(CNC(=O)C(C)Cc2ccc(C(C)(C)C)cc2)cc(F)c1NS(C)(=O)=O` (centres unmarked) [Example 43, 3-(4-tert-Butylphenyl)-N-(3-fluoro-4-methanesulfonylamino-5-vinylbenzyl)-2-methylpropionamide], the IC50 in assay [1] turned out to be 67 nM.

On to `C=Cc1cc([C@@H](C)NC(=O)/C=C/c2ccc(C(C)(C)C)cc2)ccc1NS(C)(=O)=O` [Example 14, 3-(4-t-butylphenyl)-N-[1-(R)-(4-methanesulfonylamino-3-vinylphenyl)ethyl]acrylamide], for which the concentration for half-maximal inhibition (IC50) in assay [1] is 50 nM. Also, the inhibition in vivo at 1 mg/kg in assay [2] was determined as 58%. Turning to `C#Cc1cc([C@@H](C)NC(=O)Nc2ccc(C(C)(C)C)cc2)ccc1NS(C)(=O)=O` [Example 55, (R)—N-(4-{1-[3-(4-tert-Butylphenyl)ureido]ethyl}-2-ethynylphenyl)methanesulfonamide], the IC50 in assay [1] worked out at 170 nM. As to `C=Cc1cc(CNC(=O)/C=C/c2ccc(C(C)(C)C)cc2)cc(Cl)c1NS(C)(=O)=O` [Example 21, 3-(4-tert-Butylphenyl)-N-(3-chloro-4-methanesulfonylamino-5-vinylbenzyl)acrylamide], in assay [1], the IC50 was 160 nM. Same read-out and setting: under `C=Cc1cc(CNC(=O)NCc2ccc(C(C)(C)C)cc2)c(Cl)cc1NS(C)(=O)=O` [Example 4, N-{4-[3-(4-t-butylbenzyl)ureidomethyl]-5-chloro-2-vinylphenyl}methanesulfonamide] stands 170 nM. On the same count and under the same terms, under `C=Cc1cc(CNC(=O)NCc2ccc(C(C)(C)C)cc2)cc(Cl)c1NS(C)(=O)=O` [Example 9, N-{4-[3-(4-tert-Butyl-benzyl)-ureidomethyl]-2-chloro-6-vinyl-phenyl}-methanesulfonamide] stands 130 nM; under `C=Cc1cc(CNC(=O)/C=C/c2ccc(C(C)(C)C)cc2OC2CCOCC2)cc(F)c1NS(C)(=O)=O` [Example 40, 3-[4-tert-Butyl-2-(tetrahydropyran-4-yloxy)phenyl]-N-(3-fluoro-4-methanesulfonylamino-5-vinylbenzyl)acrylamide], 290 nM.
